# According to PMC6591397, “Functional Roles of Metabolic Intermediates in Regulating the Human Mitochondrial NAD(P)^+-Dependent Malic Enzyme” (Scientific Reports, 2019):
# “And” between values parts separate entries of the source, which are not always exact repeats. Equal values may be shown once. Where a name gives a salt, the structure may show the parent alone. Read-outs that look alike come from different tables or passages of the source.
# Assays:
# m-NAD(P)-ME [1] = molecular target: T1, m-NAD(P)-ME (Homo sapiens, UniProt P23368); assay: Quaternary structure analysis by native gel electrophoresis; format: binding; conditions: 8 μg enzyme; 0.4 or 2 mM NAD+, 0.5 or 2 mM ATP
# T1 construct: made in house; host or cells: E. coli BL21 (pRH281 vector, trp promoter)
# Description: The native gel was running under 110 Voltage with a running buffer (25 mM Tris-HCl and 192 mM glycine, pH8.3) at 4 °C. After electrophoresis, protein was detected by staining with the Coomassie brilliant blue R-250.
# Figure S1. Quaternary structure of m-NAD(P)-ME determined by the native gel electrophoresis. The dimer-tetramer distribution of m-NAD(P)-ME was presented on the 3-12% Bis-Tris Native PAGE (NativePAGE^TM Novex®, Life Technologies).
# m-NAD(P)-ME [2] = molecular target: T1, m-NAD(P)-ME; assay: Size distribution analysis by analytical ultracentrifugation: monomer-dimer-tetramer equilibrium with different ligands; format: binding; conditions: NAD+-bound enzyme vs apoenzyme
# Description: All sedimentation velocity data were globally fitted by a monomer-dimer-tetramer equilibrium model by the software program of SEDPHAT[34]. The parameters protein partial specific volume, solvent density and viscosity were calculated with the [sequence] software program[35].
# [3] = tested on: human non-small cell lung carcinoma H1299 cancer cells; parameters: method as in PMID 26008970; conditions: cited from earlier work
# human m-NAD(P)-ME WT = molecular target: T2, human m-NAD(P)-ME WT (Homo sapiens, UniProt P23368); assay: ATP/ADP inhibition of enzyme activity; format: biochemical
# T2 construct: made in house; host or cells: E. coli BL21 (pRH281 vector, trp promoter)
# Description: (§1) The ME reaction was measured with the production rate of NADH or NADPH via the absorbance at 340 nm. The reaction mixture in a saturated condition included 1 mM NAD(P)^+, 40 mM malate, and 10 mM MgCl2 in 50 mM Tris-HCl (pH 7.4). To determine the Km and kcat values, the concentration of one substrate was varied around its Km values while the concentrations of the other components were fixed at saturated concentrations.
# C is the slope of the curve at its midpoint. […] All of the calculations were performed using the Sigma Plot 10.0 software program (Jandel Scientific, San Rafael, CA, USA).
# [4] = molecular target: human m-NAD(P)-ME WT and the exosite mutants; assay: Size distribution analysis by analytical ultracentrifugation of WT and exosite mutants, protein only, with NAD+ or with ATP; format: binding; conditions: PBS
# Description: Size distribution of the monomer-dimer-tetramer equilibrium of the enzyme was monitored using a Beckman Optima XL-A analytical ultracentrifuge instrument. A protein sample (380 µl) and reference buffer (400 µl) were loaded into a well-assembled cell with a double-sector centerpiece. Experiments were performed with an An-50Ti rotor at 42,000 rpm and 20 °C for 3 to 4 hours. The scans for sedimentation velocity data were monitored by the UV absorbance at 280 nm with a 480 s interval time and a 0.002 cm step size in continuous distribution mode. Using the SEDFIT 9.4c software[31]–[34], the size distribution of the enzyme was analyzed with a resolution corresponding to N = 200 to cover the range of sedimentation coefficient (S) values from approximately 0.1 to 20, a confidence level of p = 0.95, and a best-fit average anhydrous frictional ratio (f/f0). The dissociation constants of monomer-dimer-tetramer self-association model were globally analyzed by using the SEDPHAT software.
# All sedimentation velocity data were globally fitted by a monomer-dimer-tetramer equilibrium model by the software program of SEDPHAT[34]. The parameters protein partial specific volume, solvent density and viscosity were calculated with the […] software program.
# Figure 4 Continuous sedimentation coefficient distribution of human m-NAD(P)-ME WT and the exosite mutants. The enzyme concentrations were fixed at 1.6, 4.7, and 14.2 μM in PBS. […] (a) ME2_WT; (b) ME2_H154V; (c) ME2_K156A; (d) ME2_G192A; (e) ME2_R194N; (f) ME2_R197E; (g) ME2_R197D.
# Figure 5 Continuous sedimentation coefficient distribution of human m-NAD(P)-ME WT and the exosite mutants. The enzyme concentrations were fixed at 1.6, 4.7, and 14.2 μM in PBS. […] (a) ME2_N482G; (b) ME2_N482A; (c) ME2_R542V; (d) ME2_Y552F; (e) ME2_R556Q; (f) ME2_R556V.
# [5] = tested on: human m-NAD(P)-ME WT and exosite mutants; assay: Enzyme kinetic assay (NADH production, absorbance at 340 nm) of WT and exosite mutants; format: biochemical; conditions: for K0.5,malate / Km / kcat: pH 7.4
# Description: as §1
# The cooperativity of malate was determined with the following equation: ν=Vmax×[Malate]^h/K0.5h+[Malate]^h where ν is the initial velocity, Vmax is the maximum rate of the reaction, K0.5 is the substrate concentration at half-maximal velocity, and h is the Hill coefficient, which represents the degree of cooperativity.
# lung tumor = tested on: lung tumor; parameters: method as in PMID 24957098; conditions: in vivo; cited from earlier work
# m-NAD(P)-ME [6] = molecular target: T1, m-NAD(P)-ME; assay: Fumarate titration, activation of enzyme activity; format: biochemical; conditions: WT; 15 mM L-malate, 10 mM MgCl2, 1 mM NAD+, pH 7.4; fumarate 0 to 6 mM
# Description: as §1
# Figure S2. Fumarate activating effect on human m-NAD(P)-ME WT and the exosite mutants.
# [7] = protein only, read-out: Kd,12 monomer-dimer dissociation constant
# [8] = protein only, read-out: Kd,24 dimer-tetramer dissociation constant
# [9] = read-out: Kd,12(ATP), with 0.5 mM ATP
# [10] = read-out: Kd,24(ATP), with 0.5 mM ATP
# [11] = with 0.4 mM NAD+, read-out: Kd,12(NAD)
# [12] = with 0.4 mM NAD+, read-out: Kd,24(NAD)
# T1 sequence (P23368 19-584): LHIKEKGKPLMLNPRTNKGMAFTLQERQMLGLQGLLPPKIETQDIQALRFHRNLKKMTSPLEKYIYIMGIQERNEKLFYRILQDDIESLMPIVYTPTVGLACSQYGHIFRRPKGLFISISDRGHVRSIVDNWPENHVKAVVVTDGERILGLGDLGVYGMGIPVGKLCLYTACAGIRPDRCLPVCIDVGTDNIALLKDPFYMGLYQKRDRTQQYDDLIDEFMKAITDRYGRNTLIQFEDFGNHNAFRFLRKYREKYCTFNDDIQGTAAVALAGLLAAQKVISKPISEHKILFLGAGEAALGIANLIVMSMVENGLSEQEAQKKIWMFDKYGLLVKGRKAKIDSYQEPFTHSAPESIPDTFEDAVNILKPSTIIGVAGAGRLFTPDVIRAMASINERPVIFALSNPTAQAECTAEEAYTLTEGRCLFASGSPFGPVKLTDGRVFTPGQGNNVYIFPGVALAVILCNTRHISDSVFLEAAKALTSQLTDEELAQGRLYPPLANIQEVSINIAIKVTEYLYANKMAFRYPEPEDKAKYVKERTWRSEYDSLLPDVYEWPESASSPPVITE
# T2 sequence (P23368 19-584): as above
Compound,"Kd [4, 7] [µM]","Kd [4, 8] [µM]","Kd [4, 9] [µM]","Kd [4, 10] [µM]","Kd [4, 11] [µM]","Kd [4, 12] [µM]","h (Hill coefficient, malate cooperativity) ([5]; (+) with 5 mM fumarate)","h (Hill coefficient, malate cooperativity) ([5]; (−) without fumarate)","K0.5,malate ([5]; (+) with 5 mM fumarate) [mM]",Km ([5]; (+) with 5 mM fumarate) [µM],kcat ([5]; (+) with 5 mM fumarate) [s⁻¹],"K0.5,malate ([5]; (−) without fumarate) [mM]",Km ([5]; (−) without fumarate) [µM],kcat ([5]; (−) without fumarate) [s⁻¹],further results
"NC(=O)c1ccc[n+]([C@@H]2O[C@H](COP(=O)([O-])OP(=O)(O)OC[C@H]3O[C@@H](n4cnc5c(N)ncnc54)[C@H](O)[C@@H]3O)[C@@H](O)[C@H]2O)c1 [NAD, NAD^+]",–,–,–,–,–,–,–,–,–,–,–,–,–,–,"dimer-tetramer distribution of the enzyme on native gel (m-NAD(P)-ME [1]): most tetrameric forms; Kd,24 lower than that of the apoenzyme (m-NAD(P)-ME [2]): 6 fold"
"O=C(O)c1cc2ccccc2c(Cc2c(O)c(C(=O)O)cc3ccccc23)c1O [EA, Embonic acid]",–,–,–,–,–,–,–,–,–,–,–,–,–,–,effect on cell growth [3]: suppresses the cell growth; effect on cellular senescence [3]: induces the cellular senescence
Nc1ncnc2c1ncn2[C@@H]1O[C@H](COP(=O)(O)OP(=O)(O)O)[C@@H](O)[C@H]1O [ADP],–,–,–,–,–,–,–,–,–,–,–,–,–,–,IC50 (human m-NAD(P)-ME WT): 3740 µM and 3700 µM
"COC(=O)CC(O)C(=O)OC (centres unmarked) [DMM, dimethyl-malate]",–,–,–,–,–,–,–,–,–,–,–,–,–,–,effect on lung tumor growth (lung tumor): suppress lung tumor growth in vivo
N482A: exosite mutant of human m-NAD(P)-ME,0.29 ± 0.01,0.95 ± 0.03,1.44 ± 0.04,0.35 ± 0.01,0.58 ± 0.03,0.97 ± 0.05,1.04 ± 0.14,1.87 ± 0.70,1.02 ± 0.08,20 ± 10,215.6 ± 0.1,17.43 ± 5.10,700 ± 170,169.1 ± 0.6,–
"O=C(O)/C=C/C(=O)O [FUM, fumarate]",–,–,–,–,–,–,–,–,–,–,–,–,–,–,maximal activation of the enzyme by fumarate (m-NAD(P)-ME [6]): approximately 2 fold
R197E: exosite mutant of human m-NAD(P)-ME,0.03 ± 0.001,2.33 ± 0.08,0.1 ± 0.003,0.59 ± 0.02,0.1 ± 0.003,1.11 ± 0.04,1.24 ± 0.10,1.65 ± 0.30,4.55 ± 0.37,1110 ± 90,187.6 ± 5.2,23.37 ± 4.48,2370 ± 280,165.2 ± 20.4,–

# Further lines, with some results ahead:
"Kd [4, 7] [µM]","Kd [4, 8] [µM]","Kd [4, 9] [µM]","Kd [4, 10] [µM]","Kd [4, 11] [µM]","Kd [4, 12] [µM]","h (Hill coefficient, malate cooperativity) ([5]; (+) with 5 mM fumarate)","h (Hill coefficient, malate cooperativity) ([5]; (−) without fumarate)",Compound,"K0.5,malate ([5]; (+) with 5 mM fumarate) [mM]",Km ([5]; (+) with 5 mM fumarate) [µM],kcat ([5]; (+) with 5 mM fumarate) [s⁻¹],"K0.5,malate ([5]; (−) without fumarate) [mM]",Km ([5]; (−) without fumarate) [µM],kcat ([5]; (−) without fumarate) [s⁻¹],further results
0.31 ± 0.01,0.23 ± 0.01,0.08 ± 0.001,1.44 ± 0.03,0.17 ± 0.01,0.04 ± 0.001,1.08 ± 0.08,2.18 ± 0.15,R194N: exosite mutant of human m-NAD(P)-ME,5.11 ± 0.50,760 ± 70,227.4 ± 6.1,19.53 ± 0.91,1600 ± 160,204.4 ± 8.3,–
0.01 ± 0.003,1.75 ± 0.06,0.4 ± 0.01,0.18 ± 0.01,0.18 ± 0.01,0.91 ± 0.03,1.20 ± 0.07,1.71 ± 0.27,R556Q: exosite mutant of human m-NAD(P)-ME,4.75 ± 0.31,690 ± 60,251.8 ± 5.6,19.01 ± 2.40,1160 ± 220,220.5 ± 16.2,–
0.05 ± 0.01,0.18 ± 0.002,0.1 ± 0.003,0.06 ± 0.002,0.38 ± 0.002,0.04 ± 0.01,1.00 ± 0.09,1.59 ± 0.14,N482G: exosite mutant of human m-NAD(P)-ME,4.23 ± 0.47,610 ± 40,309.7 ± 11.5,23.81 ± 2.70,1500 ± 140,263.2 ± 19.7,–
